The structures appear in SMILES notation. pIC50: −log10 of the molar value.

The assay deals with Adenosine receptor A2a (Homo sapiens, UniProt P29274). The experiment in a line: biochemical.
Sequence of Adenosine receptor A2a (P29274 whole entry): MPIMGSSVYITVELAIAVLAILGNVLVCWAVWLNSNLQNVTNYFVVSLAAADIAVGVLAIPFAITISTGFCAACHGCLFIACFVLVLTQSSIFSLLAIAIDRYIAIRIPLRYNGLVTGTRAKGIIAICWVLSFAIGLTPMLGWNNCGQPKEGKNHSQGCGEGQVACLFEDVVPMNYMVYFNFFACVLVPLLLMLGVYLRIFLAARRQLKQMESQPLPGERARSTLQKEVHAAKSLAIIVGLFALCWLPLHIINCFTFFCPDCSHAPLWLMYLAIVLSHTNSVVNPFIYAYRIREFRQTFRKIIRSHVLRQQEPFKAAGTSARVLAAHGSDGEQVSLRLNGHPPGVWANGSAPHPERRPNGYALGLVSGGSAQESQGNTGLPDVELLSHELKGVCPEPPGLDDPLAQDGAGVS

What is called pIC50 is the IC50 on a negative log10 scale, so that one unit is a factor of ten. Lower therefore signals a large IC50. With `CCCCc1nc2[nH]cnc2c2nc(-c3ccc(C(F)(F)F)cc3)nn12`, the pIC50 was less than 5.00.
In turn, `CCCCc1nc2n[nH]cc2c2nc(-c3ccc(OC)cc3)nn12` had a negative logarithm of the IC50 (pIC50) of […].

The record behind these values is ChEMBL document CHEMBL1148255, “Facile synthesis of fused 1,2,4-triazolo[1,5-c]pyrimidine derivatives as human adenosine A3 receptor ligands” (Bioorg Med Chem Lett, 2004).
